Values after ≈ are worked out from the molar mass of the structure shown.
Details: buffer; pH 7.4; 200.0 µM
In the case of `COc1cc(CNCc2ccc3c(c2)OCO3)c([N+](=O)[O-])cc1OC`, the solubility kinetic is reported as 46.6 µg/mL (≈ 135 µM).
`NS(=O)(=O)c1cccc(NC(=O)CN2C(=O)C(=O)N(Cc3ccccc3)C2=O)c1` showed a solubility kinetic of 60.5 µg/mL (≈ 145 µM).
`CCOC(=O)c1cc(C#N)c(N2CCCNCC2)nc1C(F)(F)F` gave a solubility kinetic of over 51.3 µg/mL.
`COc1cccc(-c2nc(-c3ccncc3)no2)c1` showed a solubility kinetic of 3.5 µg/mL (≈ 13.8 µM).
In the case of `Cc1ccc(SCC(=O)NC2CC2)cc1`, the solubility kinetic is reported as over 33.2 µg/mL.
For `O=C1NC(c2cc(Cl)cc([N+](=O)[O-])c2O)Nc2ccccc21` (centres undefined), the solubility kinetic was over 48 µg/mL.
`COc1cc(S(=O)(=O)N(C)C2CCCCC2)c(C)cc1C` gave a solubility kinetic of 1.5 µg/mL (≈ 4.82 µM).
Work on `Cc1cc(=O)[nH]c(SCC(=O)NCC2CCCCC2)c1C#N` yielded a solubility kinetic of over 47.9 µg/mL.
With `Nc1nnc(SCC(=O)OCC(=O)NC2CCCCC2)s1` the solubility kinetic was over 49.6 µg/mL.
Molecule `CC(=O)c1cccc(NC(=O)CN2C(=O)c3ccccc3C2=O)c1` has a solubility kinetic of 13.9 µg/mL (≈ 43.1 µM).
For `O=C(CN1C(=O)c2ccccc2C1=O)NC1CCCCC1`, the solubility kinetic was 33.4 µg/mL (≈ 117 µM).
`Cc1cccc(C(=O)NCC(C)NC(=O)c2cccc(C)c2)c1` (centres undefined) gave a solubility kinetic of 23.7 µg/mL (≈ 76.4 µM).
For `COc1ccccc1CCC(=O)Nc1ncc(C)s1`, the solubility kinetic was 2.5 µg/mL (≈ 9.05 µM).
In the case of `CCCCNC(=O)COC(=O)c1ccc(C)c(NC(=O)c2ccco2)c1`, the solubility kinetic is reported as 17.8 µg/mL (≈ 49.7 µM).
For `Cc1ccc(C(=O)/C=C/N(C)C)cn1`, the solubility kinetic was 26.6 µg/mL (≈ 140 µM).
Work on `CC(C)S(=O)(=O)c1csc(NC(=O)Nc2cc(Cl)ccc2Cl)c1Cl` yielded a solubility kinetic of under 0.5 µg/mL.
With `O=C(Cc1ccc(Br)cc1)NCCc1ccc(F)cc1` the solubility kinetic was 14.9 µg/mL (≈ 44.3 µM).
Molecule `CCC(Cc1ccccc1)NC(=O)C1CCCCC1` (centres undefined) has a solubility kinetic of 11.6 µg/mL (≈ 44.7 µM).
For `O=C(NCc1ccccc1)c1c[nH]c2ccccc2c1=O`, the solubility kinetic was 39.3 µg/mL (≈ 141 µM).
With `CCCCn1c(O)c(C=NCc2ccc3c(c2)OCO3)c(=O)[nH]c1=O` the solubility kinetic was 6.8 µg/mL (≈ 19.7 µM).
In the case of `COc1ccc(N2C(=O)C(F)(F)C2c2ccc(C)cc2)cc1OC` (centres undefined), the solubility kinetic is reported as under 0.7 µg/mL.
`COc1cccc(CNC(=O)CCN2C(=S)NC(C)(C)CC2C)c1` (centres undefined) gave a solubility kinetic of over 52.4 µg/mL.
`CC(NC(=O)c1ccc(Br)o1)C1CCCO1` (centres undefined) gave a solubility kinetic of over 43.2 µg/mL.
Molecule `COc1ccccc1CN1CCc2c([nH]c3ccccc23)C1` has a solubility kinetic of 33.1 µg/mL (≈ 113 µM).
`CCc1ccc(CNC(=O)C2CC(=O)N(C3CCCC3)C2)cc1` (centres undefined) showed a solubility kinetic of over 47.2 µg/mL.
With `COc1ccc(S(=O)(=O)N2CCN(Cc3cccs3)CC2)cc1OC` the solubility kinetic was 55.7 µg/mL (≈ 146 µM).
Work on `Cc1ccc(C(=O)NC(=O)OCCn2c(C)cnc2[N+](=O)[O-])cc1` yielded a solubility kinetic of 48.2 µg/mL (≈ 145 µM).
With `Cc1cccc(NC(=S)N2CCN(S(C)(=O)=O)CC2)c1` the solubility kinetic was over 47 µg/mL.
Work on `Cc1ccc(NC(=S)N2CCC(NC(=O)c3ccccc3)CC2)cc1` yielded a solubility kinetic of 8.8 µg/mL (≈ 24.9 µM).
In the case of `O=S1(=O)CCN(OCc2ccc(F)cc2Cl)CC1`, the solubility kinetic is reported as 43.1 µg/mL (≈ 147 µM).
In the case of `CCCSCCCNC(=O)Cn1c(=O)c2cccn2c2ccccc21`, the solubility kinetic is reported as 7.7 µg/mL (≈ 21.5 µM).
For `Cc1ccc(OCCC(=O)OCC(=O)Nc2ccccc2)cc1`, the solubility kinetic was 16.5 µg/mL (≈ 52.7 µM).
In the case of `O=C(COC(=O)CNC(=O)c1ccccc1Cl)NC1CCCC1`, the solubility kinetic is reported as over 50.8 µg/mL.
With `O=C(O)CCNS(=O)(=O)c1ccc2c(c1)CCCC2` the solubility kinetic was over 42.5 µg/mL.
Molecule `CSc1ccccc1NC(=O)COC(=O)CCC(=O)c1ccc(F)cc1` has a solubility kinetic of over 56.3 µg/mL.
Work on `Cc1onc(-c2ccccc2Cl)c1C(=O)Nc1ccccc1O` yielded a solubility kinetic of 17.2 µg/mL (≈ 52.3 µM).
Work on `CC(=O)c1cn(CC(=O)Nc2ccccc2F)c2ccccc12` yielded a solubility kinetic of 9.4 µg/mL (≈ 30.3 µM).
`Cc1ccc(CN2CCN(C3CCCC3)C(CCO)C2)s1` (centres undefined) showed a solubility kinetic of 43.7 µg/mL (≈ 142 µM).
With `O=C(Nc1cccs1)Nc1cccnc1Cl` the solubility kinetic was over 38.1 µg/mL.
For `CCn1c(C)cc(/C=C2/SC(=O)N(C(C)C(=O)OC)C2=O)c1C` (centres undefined), the solubility kinetic was 22.3 µg/mL (≈ 66.3 µM).
`CN=C(c1ccc([N+](=O)[O-])cc1)N1CCCCC1` showed a solubility kinetic of over 37.1 µg/mL.
Work on `Cc1cc(C(=O)COc2ccc(C#N)cc2)c(C)n1CC1CCCO1` (centres undefined) yielded a solubility kinetic of 16.7 µg/mL (≈ 49.3 µM).
Work on `COc1ccc(Cl)cc1S(=O)(=O)n1ccnc1` yielded a solubility kinetic of over 40.9 µg/mL.
`O=C(NC1CC1)c1cc2ccccc2o1` showed a solubility kinetic of over 30.2 µg/mL.
`O=[N+]([O-])/C=C1/CCCCCN1` showed a solubility kinetic of over 23.4 µg/mL.
`O=C(c1ccc(Oc2ccc(Cl)cc2)c([N+](=O)[O-])c1)N1CCCC1` gave a solubility kinetic of 41.1 µg/mL (≈ 119 µM).
Molecule `CCOCCCN1CC(C(=O)NCc2ccc3c(c2)OCO3)CC1=O` (centres undefined) has a solubility kinetic of over 52.3 µg/mL.
`COc1ccc(-c2cnc(N)n2C)cc1` gave a solubility kinetic of 26 µg/mL (≈ 128 µM).
Work on `COc1ccc(NC(=O)COC(=O)C(NC(=O)c2ccc(C)cc2)C(C)C)cn1` (centres undefined) yielded a solubility kinetic of 57.9 µg/mL (≈ 145 µM).
For `O=C(CN1CCCC1)Nc1ccc(OCc2ccccc2)cc1`, the solubility kinetic was over 46.6 µg/mL.
`O=C(Cc1ccccc1)Oc1coc(CSc2ncccn2)cc1=O` showed a solubility kinetic of over 53.2 µg/mL.
In the case of `Cc1ccc(C)c(N2CCN(C(=O)C3CCC3)CC2)c1`, the solubility kinetic is reported as over 40.9 µg/mL.
`CCC[C@H](N[C@@H](CCC)[C@H](O)c1ccccc1)[C@H](O)c1ccccc1` gave a solubility kinetic of 5.4 µg/mL (≈ 15.8 µM).
Molecule `COC(=O)c1ccc(C(=S)NCC2(N(C)C)CCCCC2)cc1` has a solubility kinetic of 45.6 µg/mL (≈ 136 µM).
`COc1ccccc1CCC(=O)OCC(=O)NC1CCCCC1` showed a solubility kinetic of 43.7 µg/mL (≈ 137 µM).
In the case of `CN1CCCN(c2ccc([N+](=O)[O-])cc2)CC1`, the solubility kinetic is reported as over 35.3 µg/mL.
`O=C(Nc1nc(-c2ccccc2)cs1)c1ccco1` gave a solubility kinetic of 22.3 µg/mL (≈ 82.5 µM).
With `Cc1ccc(N(Cc2ccccc2)C(=O)c2cccc(F)c2)cc1` the solubility kinetic was 11.1 µg/mL (≈ 34.8 µM).
`Cc1ccc(N=Cc2c(O)c3ccccc3oc2=O)c(C)c1` showed a solubility kinetic of under 0.6 µg/mL.
